# “Also recorded” adds a separate entry of the source.
# Legend:
# [1] = molecular target: T1, A1 adenosine receptor (Homo sapiens, UniProt P30542); assay: cyclic AMP HTRF functional assay, CHO-K1 (A1); assay type: cell-based; conditions: CHO-K1 cells
# T1 sequence (P30542 1-326): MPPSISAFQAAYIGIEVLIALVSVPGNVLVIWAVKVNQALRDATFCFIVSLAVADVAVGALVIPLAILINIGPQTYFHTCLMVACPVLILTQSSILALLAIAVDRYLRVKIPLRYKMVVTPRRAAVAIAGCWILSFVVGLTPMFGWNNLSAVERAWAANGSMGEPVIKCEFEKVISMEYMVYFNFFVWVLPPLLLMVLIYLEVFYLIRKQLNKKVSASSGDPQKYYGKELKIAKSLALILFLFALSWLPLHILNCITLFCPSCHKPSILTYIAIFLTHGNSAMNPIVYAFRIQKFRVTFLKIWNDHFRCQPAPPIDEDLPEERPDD
# Procedure: (§1) Next, the functional activity of 11o against A1 and A2A adenosine receptors was evaluated using c-AMP assay in CHO-K1 (A1) and HEK-293 (A2A) cells.
# (§2) For functional studies, A1 and A2A receptor cyclic AMP HTRF (homogeneous time resolved fluorescence) assay was performed at EuroscreenFast (Charleroi, Belgium) using CHO-K1 (A1) and HEK293 (A2A) stable cell line with CPA (A1) and NECA (A2A) as reference agonist and DPCPX (A1) and ZM241385 (A2A) as reference antagonist compound.
# [2] = molecular target: A2A adenosine receptor (Homo sapiens, UniProt P29274); assay: cyclic AMP HTRF functional assay, HEK-293 (A2A); assay type: cell-based; conditions: HEK-293 cells
# Chain of A2A adenosine receptor (P29274 whole entry): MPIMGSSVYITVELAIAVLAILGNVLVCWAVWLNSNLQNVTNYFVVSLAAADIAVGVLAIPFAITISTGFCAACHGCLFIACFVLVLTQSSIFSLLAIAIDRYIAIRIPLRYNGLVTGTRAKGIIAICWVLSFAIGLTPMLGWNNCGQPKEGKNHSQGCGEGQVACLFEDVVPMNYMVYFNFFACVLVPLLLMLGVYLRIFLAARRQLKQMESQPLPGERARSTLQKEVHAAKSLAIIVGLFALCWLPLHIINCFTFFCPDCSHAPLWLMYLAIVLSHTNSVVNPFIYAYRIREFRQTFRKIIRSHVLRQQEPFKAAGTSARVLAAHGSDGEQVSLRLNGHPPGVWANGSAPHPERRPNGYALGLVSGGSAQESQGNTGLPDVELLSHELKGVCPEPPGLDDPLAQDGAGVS
# Procedure: as §1, §2
# [3] = metabolic stability in cryopreserved monkey hepatocytes
# Procedure: (§3) Metabolic stability of 11o was determined in cryopreserved hepatocytes from mice, rats, dogs, monkeys and human according to the SOPs of Frontage Laboratories Inc. Briefly, cryopreserved hepatocytes for pre-clinical animals and for human (BioIVT, Westbury, NY, USA) were thawed in a 37 °C water bath with gentle shaking until ice had almost melted. The suspensions were immediately transferred to a centrifuge tube (50 mL) containing pre-warmed thawing media at 37 °C with gentle handshaking to prevent the cells from settling. Cell suspensions were centrifuged at 50× g and 4 °C for 5 min. The supernatant was discarded and the pellets were resuspended in prewarmed incubation media (5 mL) at 37 °C. The percentage of viable cells in the suspension was determined by Trypan blue staining method to ensure viability of ≥70 %. […] The samples were centrifuged and aliquots of the supernatant were analyzed for parent compounds by LC/MS/MS using suitable multiple reaction monitoring (MRM) transitions. […] The disappearance of 11o and midazolam was monitored by LC/MS/MS (MRM) analysis of the hepatocyte extracts at each time point. The peak area ratio of the analyte to internal standard was obtained for each sample and the rate of disappearance of 11o was assessed by comparing the peak area ratios at various time points to the peak area ratio obtained at t = 0. The t1/2 is obtained (using the linear portion of semi-log plot of the area ratio vs. time) and the CLint values determined using well-stirred model.
# [4] = metabolic stability in cryopreserved human hepatocytes
# Procedure: as §3
# [5] = molecular target: T2, hERG (Homo sapiens, UniProt Q12809); assay: hERG manual patch clamp in hERG-expressing HEK cells; assay type: cell-based; conditions: read-out: hERG inhibition IC50
# T2 construct: host or cells: HEK cells stably expressing hERG
# T2 sequence (Q12809 whole entry): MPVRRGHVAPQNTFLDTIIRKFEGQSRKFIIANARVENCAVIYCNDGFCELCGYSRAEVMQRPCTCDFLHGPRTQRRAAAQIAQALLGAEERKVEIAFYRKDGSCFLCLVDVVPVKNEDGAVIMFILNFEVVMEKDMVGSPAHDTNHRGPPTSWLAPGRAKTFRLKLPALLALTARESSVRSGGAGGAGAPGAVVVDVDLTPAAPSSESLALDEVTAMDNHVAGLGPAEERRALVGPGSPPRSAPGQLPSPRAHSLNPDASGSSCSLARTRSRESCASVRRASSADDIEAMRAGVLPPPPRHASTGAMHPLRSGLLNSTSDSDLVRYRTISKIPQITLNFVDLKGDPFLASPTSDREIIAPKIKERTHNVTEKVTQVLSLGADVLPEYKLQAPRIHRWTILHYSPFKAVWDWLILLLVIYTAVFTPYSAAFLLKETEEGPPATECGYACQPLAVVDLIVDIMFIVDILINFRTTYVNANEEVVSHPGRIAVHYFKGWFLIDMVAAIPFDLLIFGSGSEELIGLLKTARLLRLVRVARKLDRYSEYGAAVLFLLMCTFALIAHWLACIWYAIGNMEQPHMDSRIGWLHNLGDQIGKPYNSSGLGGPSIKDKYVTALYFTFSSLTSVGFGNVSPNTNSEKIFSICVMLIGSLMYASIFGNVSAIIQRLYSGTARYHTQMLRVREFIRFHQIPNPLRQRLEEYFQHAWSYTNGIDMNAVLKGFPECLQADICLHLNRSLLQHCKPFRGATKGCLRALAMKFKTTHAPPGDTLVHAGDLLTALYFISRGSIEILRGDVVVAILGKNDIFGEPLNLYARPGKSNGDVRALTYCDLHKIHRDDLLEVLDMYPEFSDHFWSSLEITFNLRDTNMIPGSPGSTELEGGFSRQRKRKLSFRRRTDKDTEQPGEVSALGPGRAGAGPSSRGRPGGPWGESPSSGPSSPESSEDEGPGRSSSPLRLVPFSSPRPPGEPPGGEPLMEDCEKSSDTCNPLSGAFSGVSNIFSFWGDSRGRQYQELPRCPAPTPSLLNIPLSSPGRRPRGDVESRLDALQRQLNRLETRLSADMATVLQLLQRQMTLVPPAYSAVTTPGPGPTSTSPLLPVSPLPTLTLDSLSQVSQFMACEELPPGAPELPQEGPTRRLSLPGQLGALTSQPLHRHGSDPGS
# Procedure: hERG (human-ether-a-go-go) liability was investigated in an hERG-expressing HEK cell line using the manual patch clamp method to assess the potential cardiotoxicity of 11o.
# hERG ion channel-blocking profile of acute exposure to 11o was performed in stably expressing HEK cells at Nova Research Laboratories (New Orleans, LA, USA). Briefly, cloned equivalent of the human IKr, hERG, was used. Cells were obtained from Cytogentrics Bioscience GmbH (Jachim-Jungius-Strafe 9, 18,059 Rostock, Germany). Internal and external recording solutions as well as data acquisition and analysis were as previously described.
# [6] = system: TA98 and TA100; assay: AMES bacterial reverse-mutation test; assay type: cell-based; conditions: up to 1867 μg/plate; TA98 and TA100, with and without S9
# Procedure: The mutagenic potential of 11o was also tested by assessing its ability to reverse mutations in a bacterial mutagenesis study.
# AMES bacterial reverse-mutation test was performed at Frontage laboratories inc. (Frontage laboratories, Concord, OH, USA) according to testing facility’s standard operating procedures (SOPs) following OECD guideline 471, “Bacterial Reverse Mutation Test”, and ICH S2(R1), “Guidance on Genotoxicity Testing and Data Interpretation for Pharmaceuticals Intended for Human Use”[19]. Briefly, test system was exposed to test article via plate-incorporation methodology originally described by Ames et al. and updated by Maron and Ames. […] For mutagenicity assay, TA98 and TA100 (tester strains source: Molecular Toxicology Inc. (Boone, NC, USA). TA98 lot number 5464D, part number 71–098L; TA100 lot number 5439D, part number 71–100L) was exposed to vehicle alone and at least 8 concentrations of 11o, with duplicate plates/condition, in both the presence and absence of S9 using the plate incorporation method. […] Following incubation, plates were examined for the condition of the bacterial background lawn and precipitate and recorded. Colonies were enumerated either by visually or by an automatic colony counter (Scan 1200 Automated colony counter and scan software).
# [7] = maximum tolerated dose, single oral administration, dog; conditions: both sexes, in vivo, single oral administration, male and female beagle dogs
# Procedure: (§4) Rat and dog MTD studies were performed at Frontage Laboratories Inc following testing facility’s SOPs. All procedures described were reviewed and approved by the Institutional Animal Care and Use Committee (IACUC) at Frontage Laboratories Inc.
# (§5) For dog MTD study, male and female beagle dogs (Canis familiaris) of 1.3 to 1.4 years of age were from Frontage Laboratories’ test facility stock colony, originally procured from Marshall BioResources (North Rose, NY, USA). The health status of the animals was reviewed by a staff veterinarian. Data collected on animals prior to release to study were maintained as testing facility records. Same dogs were used for each dose event. Animals received a single dose of 11o in 0.5% methyl cellulose via oral gavage starting from 50 mg/kg dose level in 5 mL/kg dose volume. Subsequent doses occurred 3 or 4 days following the previous dose and were increased based on findings from the previous dosing(s). The procedure continued until four dosing events occurred. Animals were fasted overnight prior to each dose administration with food provided approximately 4 h post-dose. Animals were observed once in the morning and once in the afternoon throughout the study for clinical observations. Body weights were measured on the day prior to dose administration. Data were collected and reported electronically using Provantis^TM (Instem LSS Ltd., Staffordshire, UK).
# [8] = system: beagle dogs; assay: as above; conditions: in vivo, po
# Procedure: as §4, §5
# [9] = human, cryopreserved hepatocytes in suspension
smiles,measurement,setting,value
"Cc1cc(Cn2ncc3c(-c4cccc(C#N)c4F)nc(N)nc32)ccc1N [11o, 3-(6-Amino-1-(4-amino-3-methylbenzyl)-1H-pyrazolo[3,4-d]pyrimidin-4-yl)-2-fluorobenzonitrile]",functional activity at A1 receptor,[1],full antagonism
same,IC50,"[1]; read-out: IC50, A1 functional antagonism (c-AMP)",98.8 nM
same,functional activity at A2A receptor,[2],full antagonism
same,IC50,"[2]; read-out: IC50, A2A functional antagonism (c-AMP)",136 nM
same,CLint scaled at 1 μM,"[3]; cynomolgus monkey, cryopreserved hepatocytes in suspension",20.1 mL/min/kg
same,Intrinsic Clearance,"[3]; monkey hepatocytes, 1 μM 11o",0.00558 mL/min/10^6 Cells
same,half-life at 1 μM,"[3]; monkey, cryopreserved hepatocytes in suspension",124 min
same,"Extrapolated Clearance, CL","[4]; human hepatocytes, 1 μM 11o",9.58 mL/min/kg
same,Intrinsic Clearance,"[4]; human hepatocytes, 1 μM 11o",0.00377 mL/min/10^6 Cells
same,half-life at 1 μM,[4]; [9],184 min
same,hepatocyte CLint at 1 μM,[4]; [9],3.8 µL/min/1e6 cells
same,CLint scaled at 1 μM,"[4]; human, cryopreserved hepatocytes in suspension, Extrapolated Clearance, CL, human hepatocytes, 1 μM 11o",9.6 mL/min/kg
same,CLint in human hepatocytes relative to midazolam,"[4]; human, hepatocytes",less than 40 % of midazolam
same,IC50,[5],116 µM
same,AMES mutagenicity,[6],did not cause any positive mutagenic response; also recorded: no mutagenicity up to 1867 μg/plate
same,MTD,[7],> 400 mg/kg
same,"body weight change, female dogs",[8],−6.5%
same,"body weight change, male dogs",[8],−5.7%

# Reference: article PMC9394284, “Discovery of Novel Dual Adenosine A2A and A1 Receptor Antagonists with 1H-Pyrazolo[3,4-d]pyrimidin-6-amine Core Scaffold as Anti-Parkinson’s Disease Agents” (Pharmaceuticals, 2022)
